Experimental data: ChEMBL document CHEMBL2424652, “Synthesis, characterization, and antimicrobial evaluation of novel trichalcones containing core s-triazine moiety” (2013)

How the values were obtained:
Assay type in all cases: functional
Staphylococcus aureus = experiment: Antibacterial activity against Staphylococcus aureus at 200 ug/mL after 24 hrs by disc diffusion method; details: read-out: DIZ
Alternaria = experiment: Antifungal activity against Alternaria at 200 ug/mL after 48 hrs by disc diffusion method; details: for zone of inhibition at 200 µg/mL: read-out: DIZ
Proteus vulgaris = experiment: Antibacterial activity against Proteus vulgaris at 200 ug/mL after 24 hrs by disc diffusion method; details: read-out: DIZ
[1] = test system: Pectobacterium carotovorum; experiment: Antibacterial activity against Erwinia carotovora at 200 ug/mL after 24 hrs by disc diffusion method; details: read-out: DIZ
[2] = Antibacterial activity against Xanthomonas citri at 200 ug/mL after 24 hrs by disc diffusion method; details: read-out: DIZ
Curvularia = experiment: Antifungal activity against Curvularia lunata at 200 ug/mL after 48 hrs by disc diffusion method; details: for zone of inhibition at 200 µg/mL: read-out: DIZ

| Molecule | zone of inhibition at 200 µg/mL (Staphylococcus aureus) [mm] | zone of inhibition at 200 µg/mL (Alternaria) [mm] | zone of inhibition at 200 µg/mL (Proteus vulgaris) [mm] | zone of inhibition at 200 µg/mL [1] [mm] | zone of inhibition at 200 µg/mL [2] [mm] | zone of inhibition at 200 µg/mL (Curvularia) [mm] | inhibition zone (IZ) (Alternaria) [mm] | inhibition zone (IZ) (Curvularia) [mm] |
| --- | --- | --- | --- | --- | --- | --- | --- | --- |
| Cc1ccc(C(=O)/C=C/c2ccc(Oc3nc(Oc4ccc(/C=C/C(=O)c5ccc(C)cc5)cc4)nc(Oc4ccc(/C=C/C(=O)c5ccc(C)cc5)cc4)n3)cc2)cc1 | 7.93 | 5.16 | 10 | 8.03 | 10.1 | 6.96 | – | – |
| O=C(/C=C/c1ccc(Oc2nc(Oc3ccc(/C=C/C(=O)c4ccccc4)cc3)nc(Oc3ccc(/C=C/C(=O)c4ccccc4)cc3)n2)cc1)c1ccccc1 | 10 | 5.1 | 7.83 | 7.93 | 6.96 | 6.16 | – | – |
| O=C(/C=C/c1ccc(Oc2nc(Oc3ccc(/C=C/C(=O)c4ccc([N+](=O)[O-])cc4)cc3)nc(Oc3ccc(/C=C/C(=O)c4ccc([N+](=O)[O-])cc4)cc3)n2)cc1)c1ccc([N+](=O)[O-])cc1 | 4.93 | 7 | 5.9 | 6.96 | 6.1 | 8.2 | – | – |
| COc1ccc(C(=O)/C=C/c2ccc(Oc3nc(Oc4ccc(/C=C/C(=O)c5ccc(OC)cc5)cc4)nc(Oc4ccc(/C=C/C(=O)c5ccc(OC)cc5)cc4)n3)cc2)cc1 | 7.86 | 10.2 | 6.96 | 8.06 | 8.86 | 13.2 | – | – |
| CC1(C)S[C@@H]2[C@H](NC(=O)Cc3ccccc3)C(=O)N2[C@H]1C(=O)O [PENICILLIN G] | 15 | – | 15 | 15 | 15 | – | – | – |
| O=C(/C=C/c1ccc(Oc2nc(Oc3ccc(/C=C/C(=O)c4cccc([N+](=O)[O-])c4)cc3)nc(Oc3ccc(/C=C/C(=O)c4cccc([N+](=O)[O-])c4)cc3)n2)cc1)c1cccc([N+](=O)[O-])c1 | 7.13 | 7.96 | 10 | 6 | 7.96 | 6.96 | – | – |
| COc1ccc(OC)c(C(=O)/C=C/c2ccc(Oc3nc(Oc4ccc(/C=C/C(=O)c5cc(OC)ccc5OC)cc4)nc(Oc4ccc(/C=C/C(=O)c5cc(OC)ccc5OC)cc4)n3)cc2)c1 | 9.1 | 12.2 | 7.86 | 9.1 | 10 | 12.2 | – | – |
| NYSTATIN | – | – | – | – | – | – | 15 | 15 |
| COc1ccc(C(=O)/C=C/c2ccc(Oc3nc(Oc4ccc(/C=C/C(=O)c5ccc(OC)c(OC)c5)cc4)nc(Oc4ccc(/C=C/C(=O)c5ccc(OC)c(OC)c5)cc4)n3)cc2)cc1OC | 9.9 | 12.1 | 12.3 | 12.2 | 11.1 | 12.1 | – | – |
| O=C(/C=C/c1ccc(Oc2nc(Oc3ccc(/C=C/C(=O)c4ccc(Cl)cc4)cc3)nc(Oc3ccc(/C=C/C(=O)c4ccc(Cl)cc4)cc3)n2)cc1)c1ccc(Cl)cc1 | 12.1 | 8.03 | 14 | 8.06 | 10.1 | 7.2 | – | – |
| O=C(/C=C/c1ccc(Oc2nc(Oc3ccc(/C=C/C(=O)c4ccc(Br)cc4)cc3)nc(Oc3ccc(/C=C/C(=O)c4ccc(Br)cc4)cc3)n2)cc1)c1ccc(Br)cc1 | 9.96 | 6.16 | 11.9 | 13 | 11.1 | 10.1 | – | – |
| COc1cc(C(=O)/C=C/c2ccc(Oc3nc(Oc4ccc(/C=C/C(=O)c5cc(OC)c(OC)c(OC)c5)cc4)nc(Oc4ccc(/C=C/C(=O)c5cc(OC)c(OC)c(OC)c5)cc4)n3)cc2)cc(OC)c1OC | 13 | 13.2 | 11.1 | 12.3 | 10.1 | 14.1 | – | – |
